Data as given in article PMC6107548, “Identification and characterization of aspartyl-tRNA synthetase inhibitors against Mycobacterium tuberculosis by an integrated whole-cell target-based approach” (Scientific Reports, 2018).
In brackets after ≈: the same amount, converted by molar mass. Where two headings read alike, the source gives them in different places.

Columns and labels:
Mt-AspRS [1] = molecular target: T1, Mt-AspRS (Mycobacterium tuberculosis, UniProt P9WFW3); test: Mechanistic characterization, competition with ADPCP in tRNA-independent reaction; type: biochemical; set-up: made in house; settings: ADPCP 0-4000 μM; inhibitor 50 and 100 μM
T1 sequence (P9WFW3 whole entry): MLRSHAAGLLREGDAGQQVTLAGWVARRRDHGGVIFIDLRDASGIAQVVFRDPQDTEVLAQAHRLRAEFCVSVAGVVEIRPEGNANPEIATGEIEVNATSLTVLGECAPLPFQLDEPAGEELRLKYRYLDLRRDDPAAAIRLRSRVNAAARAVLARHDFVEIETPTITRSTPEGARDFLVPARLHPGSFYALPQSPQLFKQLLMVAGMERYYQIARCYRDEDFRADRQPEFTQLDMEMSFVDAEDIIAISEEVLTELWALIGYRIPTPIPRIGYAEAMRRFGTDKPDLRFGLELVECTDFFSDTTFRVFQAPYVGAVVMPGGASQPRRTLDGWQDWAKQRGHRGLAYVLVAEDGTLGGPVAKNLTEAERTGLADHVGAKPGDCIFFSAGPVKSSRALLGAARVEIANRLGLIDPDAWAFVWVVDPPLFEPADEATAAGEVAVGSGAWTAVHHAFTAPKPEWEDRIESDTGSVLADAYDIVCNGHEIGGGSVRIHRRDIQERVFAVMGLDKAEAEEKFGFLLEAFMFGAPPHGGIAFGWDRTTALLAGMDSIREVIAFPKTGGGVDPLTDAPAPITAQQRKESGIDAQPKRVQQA

M.tb H37Rv (intra) = test: MIC against intracellular M.tb H37Rv; type: cell-based; settings: Mycobacterium tuberculosis, Table S2
Mt-AspRS [2] = molecular target: T1, Mt-AspRS; test: biochemical
[3] = tested on: M.bovis BCG pMV261::Mt-AspRS; test: microbe, parasite or virus in culture; type: cell-based, Mycobacterium bovis BCG; settings: for MIC: Mycobacterium tuberculosis variant bovis BCG, BCG
HepG2 = HepG2 cytotoxicity; type: cell-based; settings: Homo sapiens, Table S2
M.bovis BCG empty pMV261 = test: microbe, parasite or virus in culture; type: cell-based; settings: Mycobacterium tuberculosis variant bovis BCG
M.tuberculosis H37Rv = test: MIC against M. tuberculosis H37Rv (extracellular); type: cell-based; settings: Mycobacterium tuberculosis
Mt-AspRS [4] = molecular target: T1, Mt-AspRS; test: tRNA-independent ATP release assay (coupled enzymes, NADPH fluorescence); type: biochemical; set-up: made in house; settings: Table S2, 0.5 μM enzyme, 2 mM ADPCP, mean of two replicates
N[C@@H](CC(=O)O)C(=O)O = test: purified protein, by the assay type; settings: pH 7.7; 37.0 °C
[5] = read-out: MIC M. bovis BCG pMV261::AspRS
[6] = read-out: MIC M.bovis BCG pMV261::Mt-AspRS
[7] = read-out: MIC M. bovis empty pMV261 BCG
[8] = read-out: MIC M.bovis BCG empty pMV261
[9] = Table S1, read-out: MIC M.tuberculosis H37Rv
[10] = Table S2, extracellular, read-out: MIC M.tb H37Rv (extra)

Molecule	mode of inhibition with regard to ADPCP (Mt-AspRS [1])	MIC (M.tb H37Rv (intra)) [µM]	IC50 (Mt-AspRS [2]) [µM]	Ratio (MIC shift) [3]	MIC [3, 5] [µM]	MIC [3, 6] [µM]	IC50 (HepG2) [µM]	MIC (M.bovis BCG empty pMV261; [7]) [µM]	MIC (M.bovis BCG empty pMV261; [8]) [µM]	MIC (M.tuberculosis H37Rv; [9]) [µM]	MIC (M.tuberculosis H37Rv; [10]) [µM]	IC50 (Mt-AspRS [4]) [µM]	Km (N[C@@H](CC(=O)O)C(=O)O) [µM]
O=C(O)c1ccc(Nc2nc(-c3cccs3)cs2)cc1O [GSK93A]	Reversible and non-competitive	> 50.1	35.6	4.3	1.7 (≈ 0.541 µg/mL)	1.7 (≈ 0.541 µg/mL)	> 100	0.4 (≈ 0.127 µg/mL)	0.4 (≈ 0.127 µg/mL)	31.2 (≈ 9.95 µg/mL)	31.2 (≈ 9.95 µg/mL)	–	–
N#Cc1ccc(COc2ccc3c(c2)CCN(C(=O)/C=C/c2ccc(Nc4ccc(F)cn4)cc2)C3)cc1 [GSK85A]	–	> 50.1	–	–	–	–	25.1	–	–	–	2.5 (≈ 1.26 µg/mL)	3.37	–
O=C1OC2(CCC(CNc3ccc(-c4cc(F)cc(F)c4)nn3)CC2)CN1c1cccnn1 (stereo not shown) [GSK97C]	Reversible and non-competitive	3.16 (≈ 1.43 µg/mL)	1.12	2.4	24.9 (≈ 11.3 µg/mL)	24.9 (≈ 11.3 µg/mL)	40	10.5 (≈ 4.75 µg/mL)	10.5 (≈ 4.75 µg/mL)	20 (≈ 9.05 µg/mL)	20 (≈ 9.05 µg/mL)	–	–
Nc1ccc(/C=C/C(=O)N2CCC(COc3cccnc3)CC2)cn1 [GSK92A]	–	> 50.1	–	–	–	–	> 100	–	–	–	> 80	21.3	–
Mt-AspRS (Mycobacterium tuberculosis H37Rv)	–	–	–	–	–	–	–	–	–	–	–	–	13.8 ± 9.6
